Source: US20250241901A1, “ACTIVATION OF MNRR1 / CHCHD2 AS A THERAPEUTIC TARGET FOR MITOCHONDRIA ASSOCIATED DISORDERS” (Wayne State University, priority 2024, published 2025)

Columns and labels:
[1] = test system: MELAS cybrid cells; experiment: Oxygen consumption of MELAS cybrid cells (Seahorse); assay type: cell-based, human; conditions: 10 μM, 48 h
Protocol: FIGS. 7A-7E: MNRR1 activation by tizoxanide enhances mtDNA biogenesis and mitophagy to shift heteroplasmy in MELAS cells. FIG. 7A: Oxygen consumption measured from MELAS cybrid cells treated with vehicle (DMSO) or tizoxanide (10 μM) for 48 h (n=4 biological replicates, error bars represent SE). FIG. 7B: Haelll restriction enzyme digestion of a PCR-amplified fragment of mtDNA harboring the m.3243A>G mutation from DW7 cells treated with vehicle (DMSO) or tizoxanide (10 μM) for 144 h. […] FIG. 7C: Genes identified using qPCR of MELAS cybrid cells stably overexpressing EV or MNRR1. FIG. 7D: MtDNA levels are shown relative to nuclear DNA (nDNA) (GAPDH) (n=5 biological replicates, error bars represent SE). […]
FIGS. 11A-11F: RBPJk and HIF2α compete for binding at the ORE in the MNRR1 promoter to regulate transcription. […] FIG. 11E: Oxygen consumption measured from Control or HIFα knockdown (KD) MELAS cybrid cells. […] FIG. 11F: Left, Oxygen consumption measured from MELAS cybrid cells treated with vehicle (DMSO) or PT2385 (10 μM), an inhibitor of HIF2α function, for 24 h. […]
Intact cellular oxygen consumption and measurement of ATP: Cellular oxygen consumption was measured with a Seahorse XFe24 Bioanalyzer (Agilent). Cells were plated at a concentration of 3.5×10^4 per well a day prior to treatment and basal oxygen consumption was measured 48 h after treatments, as described. […]

[2] = test system: MELAS patient fibroblasts; experiment: LPS-induced ROS and TNF levels in MELAS patient fibroblasts; assay type: cell-based, human; conditions: 10 μM + 500 ng/mL LPS, 24 h
Protocol: FIGS. 8A-8D: MNRR1 activation using tizoxanide enhances mitochondrial function, mitophagy, and protects from LPS-induced inflammation in MELAS patient fibroblasts. FIG. 8A: Equal amounts of lysates from MELAS patient fibroblast (MF 1, 2, or 3) lysates treated with vehicle (DMSO) or tizoxanide (10 μM) for 48 h were separated on an SDS-PAGE gel and probed for LC3B, PGC1a, MNRR1, MTCO2, TOM20, and phospho-ubiquitin (S65) levels. GAPDH orTubulin was probed as a loading control. FIG. 8B: Oxygen consumption measured from MELAS patient fibroblasts treated with vehicle (DMSO) or tizoxanide (10 μM) for 48 h (n=4 biological replicates, mean±SE). FIG. 8C: Mitochondrial ATP rate measured in MELAS patient fibroblasts treated with vehicle (DMSO) or tizoxanide (10 μM) for 48 h (n=4 biological replicates, mean±SE). FIG. 8D: Heatmap representation of ROS and TNFα transcript levels from MELAS patient fibroblasts treated with vehicle (DMSO), LPS (DMSO+500 ng/mL LPS), or LPS plus tizoxanide (10 μM tizoxanide+500 ng/mL LPS) for 24 h (n=4 biological replicates). In all figures, * indicates p<0.05, ** indicates p<0.005.
ROS measurements: Total cellular ROS measurements were performed with CM-H2DCFDA (Life Technologies). […] Cells were washed twice in phosphate buffered saline and analyzed for fluorescence on a BioTek Synergy H1 Microplate Reader (Agilent).

In the case of `O=C(Nc1ncc([N+](=O)[O-])s1)c1ccccc1O` [tizoxanide, Tizoxanide], the oxygen consumption [1] is reported as “increased” and the “LPS-induced pro-inflammatory response (ROS and TNF levels)” value [2] is reported as “blocked”.
